In patent US20250161428A1, “PREVENTING/TREATING PSEUDOMONAS AERUGINOSA INFECTION” (priority 2022, published 2025):
Where “and” joins values, the source holds several entries; their conditions need not be identical. Identical values can stand only once. Like-named read-outs stand apart in the source and are kept apart here.

Assays:
[1] = tested on: mAb 1B1; assay: mAb inhibition ELISA with synthetic oligosaccharides, mAb 1B1; format: binding, mouse; conditions: P. aeruginosa PAO1 BAA-47 LPS or whole cell coated plates, 10 μg/ml mAb
Excerpt: FIGS. 15A, 15B, and 15C show inhibition ELISAs of mAbs 1B1 (FIG. 15A), 3C4 (FIG. 15B) and 3B8 (FIG. 15C) with LPS (left hand panels; square markers—P. aeruginosa PAO1 BAA-47, inverted triangle markers—P. aeruginosa (wzy::Gm)(Δpa5458), diamond markers—N. meningitidis galE/lpt3 and circular markers—PBS control) or synthetic oligosaccharides representing the terminal methylated rhamnan (right hand panels; solid circle markers—pentasaccharide, open square markers—tetrasaccharide, open circle markers—trisaccharide, inverted triangle markers—disaccharide, diamond markers—disaccharide with linker, triangle markers—L-monomer, solid square markers—D-monomer) against P. aeruginosa PAO1 BAA-47 LPS. Serial dilution, as shown on the x-axis, of either LPS or synthetic oligosaccharide was combined at an equal volume with 10 μg/ml mAb. After 1 h incubation, 100 μl of this inhibition mixture was added to PAO1 BAA-47 LPS coated plates. A secondary mAb specific for the primary mAb was added and absorbance was measured after a colour reagent was added. The absorbance obtained when the mAb is no longer inhibited by additional LPS or synthetic oligosaccharide is equal to inhibition by PBS.
FIGS. 15D, 15E, and 15F show inhibition ELISAs of mAbs 1B1 (FIG. 15D), 3C4 (FIG. 15E) and 3B8 (FIG. 15F) with LPS (left hand panels; square markers—P. aeruginosa PAO1 BAA-47, inverted triangle markers—P. aeruginosa (wzy::Gm)(Δpa5458), diamond markers—N. meningitidis galE/lpt3 and circle markers—PBS control) or synthetic oligosaccharides representing the terminal methylated rhamnan (right hand panels; solid circle markers—pentasaccharide, open square markers—tetrasaccharide, open circle markers—trisaccharide, inverted triangle markers—disaccharide, diamond markers—disaccharide with linker, triangle markers—L-monomer, blue—D-monomer) against P. aeruginosa PAO1 BAA-47 whole cells. Serial dilution, as shown on the x-axis, of either LPS or synthetic oligosaccharide was combined at an equal volume with 10 μg/ml mAb. After 1 h incubation, 100 μl of this inhibition mixture was added to PAO1 BAA-47 whole cell coated plates. A secondary mAb specific for primary the mAb was added and absorbance measured after a colour reagent was added. Absorbance obtained when the mAb is no longer inhibited by additional LPS or synthetic oligosaccharide is equal to inhibition by PBS.
mAb inhibition ELISA: Wells of Nunc Maxisorp EIA plates were coated with either 1 μg of P. aeruginosa LPS in PBS overnight at 4° C. or P. aeruginosa killed whole cells in dH2O in a drying oven overnight, and then brought to RT before use. Plates were blocked with 1% BSA-PBS for 1 h at RT, and then wells were washed with PBS-T. During the blocking step, the inhibition was set-up. Either LPS or a synthetic oligosaccharide was added to a tube at either 1 mg/ml or 3 mg/ml and then a serial dilution with 1% BSA-PBS was performed, before an equal volume of mAb (1B1, 3B8 or 3C4) was added at a constant concentration of 10 μg/ml in 1% BSA-PBS, this mixture was incubated for 1 h at RT. Following washing of the EIA plate with PBS-T, 100 μl from the mixed tubes was added to the plate and allowed to incubate for 1 h at RT for LPS coated plates, or 3 h at RT for killed whole cell coated plates. Following washing with PBS-T, the appropriate AP-labeled goat anti-mouse Ig (Southern Biotech) specific for the mAb used, diluted 1:250 in 1% BSA-PBS, was added for 1 h at RT. The plates were then washed with PBS-T and developed with Phosphatase Substrate System (Kirkegaard and Perry Laboratories). After 60 min, absorbance was measured at 405 nm using a microtiter plate reader. […]

[2] = tested on: 1B1 IgM; assay: SPR binding of synthetic oligosaccharides to 1B1 IgM surface; parameters: species or system mouse; conditions: for Obs Rmax (observed maximum binding response): high density 1B1 IgM surface, 25° C., HBS-EP; for Obs Rmax (observed maximum binding response) / ka / kd: two runs per oligosaccharide
Protocol: Various concentration ranges of synthetic oligosaccharides (see Experimental) were flowed over IgM 1B1 and an irrelevant IgM, Fn 4F1. Mcat lgt2/4: control oligosaccharide.
Surface plasmon resonance (SPR): SPR binding assays were performed at 25° C. on a Biacore T200 instrument in HBS-EP running buffer (Cytiva Life Sciences, Mississauga, Canada), essentially as described previously. Briefly, approximately 13000 RUs of IgM (PA 1B1 and control Fn 4F1) were amine coupled to a CM7S sensor chip in 10 mM acetate buffer, pH 4.0 (Cytiva). Synthetic oligosaccharides were reconstituted in HBS-EP to 25 mM and a series of dilutions prepared for injection over IgM surfaces. The contact time was 60 s and the dissociation time 120 s (mono-, di-) or 180 s (tri-, tetra-, penta-). The following concentration ranges were injected: mono- (1 mM-62.5 μM), di- (200 μM-12.5 μM) and tri-, tetra- and penta- (10 μM-625 nM). Mcat lgt2/4 an oligosaccharide from Moraxella catarrhalis, served as a control and was injected at 10 μM. Surfaces were regenerated by extensive washing with HBS-EP. Reference flow cell subtracted sensorgrams were fit to a 1:1 binding model to determine binding kinetics and affinities, or affinities were determined by steady-state analysis.
Synthetic carbohydrates ranging from a monosaccharide to pentasaccharide were flowed over high density surfaces of 1B1 IgM and an irrelevant IgM, Fn 4F1.

[3] = tested on: purified PAO1 LPS; assay: mAb competition ELISA; format: binding, P. aeruginosa; conditions: PAO1 LPS coated plates; 3C4 at 62.5 μg/ml
Protocol: (§1) The plate was washed and mAb 3C4 was added at a constant concentration (62.5 μg/ml). A secondary mAb specific for mAb 3C4 was added and absorbance was measured after a colour reagent was added (line with square markers). The absorbance obtained when 3C4 was added to the plate without 1B1 competition is shown by the line with a triangle marker.
as §1, with “to” for “to the”, “3B8” for “1B1”
mAb competition ELISA: Wells of Nunc Maxisorp EIA plates were coated with 1 μg of P. aeruginosa LPS in PBS overnight at 4° C. and then brought to RT before use. Plates were blocked with 1% BSA-PBS for 1 h at RT, and then wells were washed with PBS-T. One mAb (1B1 or 3B8) was titrated and added to the plate for 1 h at RT. Following washing with PBS-T, the second mAb (3C4) was added at a pre-determined concentration and allowed to incubate for 1 h at RT. Following washing with PBS-T, AP-labeled goat anti-mouse IgG2b (Southern Biotech) specific for mAb 3C4, diluted 1:250 in 1% BSA-PBS was added for 1 h at RT. The plates were then washed with PBS-T and developed with Phosphatase Substrate System (Kirkegaard and Perry Laboratories). After 60 min absorbance was measured at 405 nm using a microtiter plate reader.

[4] = tested on: killed whole cells of P. aeruginosa strains; assay: ELISA binding of mAbs to killed whole cells; conditions: summary statement, serotype strains and clinical isolates
Protocol: FIGS. 11A, 11B, and 11C show ELISA analysis of binding of 1B1 (FIG. 11A), 3B8 (FIG. 11B), and 3C4 (FIG. 11C) purified monoclonal antibodies (mAbs) (all at 100 μg/ml) to killed whole cells of P. aeruginosa strains NRCC #'s 6678, 6668-70, 6954-60 and negative control strains M. catarrhalis 6541 and N. meningitidis 6263 (see Table 1 for full details of strains).
ELISA: The binding of anti-P. aeruginosa A-band terminal epitope mAbs and polyclonal sera to BSA conjugates, purified LPS and to whole cells was evaluated by ELISA as described previously.

[5] = 1:1 binding model, table: two runs, text: one value per oligosaccharide, read-out: KD
[6] = 1:1 binding model, listed as Tri-

## CO[C@@H]([C@H](O)[C@@H](C)O)[C@H](O)C=O [D-monosaccharide, 3-O-Methyl-D-rhamnose]
[1]
  inhibition of binding of mAb 1B1 to its target LPS and killed whole cells: some evidence of inhibition

## CO[C@@H]1[C@@H](O)[C@H](C)OC(O)[C@@H]1O (stereo partly drawn) [L-monosaccharide, 3-O-Methyl-L-rhamnopyranose]
[1]
  inhibition of binding of mAb 1B1 to its target LPS and killed whole cells: completely ineffective in inhibition

## CO[C@@H]1[C@H](O)[C@@H](O[C@H]2[C@H](OC)[C@H](O)C(O)O[C@@H]2C)O[C@H](C)[C@H]1O (stereo partly drawn) [disaccharide, 3-O-Methyl-α-D-rhamnopyranoside-(1→4)-3-O-methyl-D-rhamnopyranose]
[1]
  inhibition of binding of mAb 1B1 to its target LPS and killed whole cells: some evidence of inhibition
[2]; listed as Di-
  Obs Rmax (observed maximum binding response): 14 and 15
[2]; steady-state analysis, listed as Di-, read-out: KD, steady state affinity
  Kd: 85800 nM and 82500 nM
[2]; steady-state analysis, read-out: KD, steady state affinity
  Kd: 84000 nM

## CO[C@@H]1[C@H](O)[C@@H](O[C@H]2[C@H](OC)[C@H](O)[C@@H](O[C@H]3[C@H](OC)[C@H](O)[C@@H](O[C@H]4[C@H](OC)[C@H](O)[C@@H](O[C@H]5[C@H](OC)[C@H](O)[C@@H](O)O[C@@H]5C)O[C@@H]4C)O[C@@H]3C)O[C@@H]2C)O[C@H](C)[C@H]1O [pentasaccharide, 3-O-methyl-α-D-rhamnopyranoside-(1→4)-3-O-methyl-α-D-rhamnopyranoside-(1→4)-3-O-methyl-α-D-rhamnopyranoside-(1→4)-3-O-methyl-α-D-rhamnopyranoside-(1→4)-3-O-methyl-α-D-rhamnopyranose]
[1]
  inhibition of binding of mAb 1B1 to its target LPS and killed whole cells: effectively equivalent in inhibiting
[2]; 1:1 binding model, table: two runs, text: one value per oligosaccharide, listed as Penta-, read-out: KD
  Kd: 540 nM
[2]; [5]
  Kd: 550 nM
[2]; 1:1 binding model
  ka: 3430 s⁻¹ and 5430 s⁻¹
  kd: 0.00186 M⁻¹ s⁻¹ and 0.0019 M⁻¹ s⁻¹
[2]
  Obs Rmax (observed maximum binding response): 34

## CO[C@@H]1[C@H](O)[C@@H](O[C@H]2[C@H](OC)[C@H](O)[C@@H](O[C@H]3[C@H](OC)[C@H](O)[C@@H](O[C@H]4[C@H](OC)[C@H](O)[C@@H](O)O[C@@H]4C)O[C@@H]3C)O[C@@H]2C)O[C@H](C)[C@H]1O [tetrasaccharide, 3-O-methyl-α-D-rhamnopyranoside-(1→4)-3-O-methyl-α-D-rhamnopyranoside-(1→4)-3-O-methyl-α-D-rhamnopyranoside-(1→4)-3-O-methyl-α-D-rhamnopyranose]
[1]
  inhibition of binding of mAb 1B1 to its target LPS and killed whole cells: effectively equivalent in inhibiting
[2]; 1:1 binding model, table: two runs, text: one value per oligosaccharide, listed as Tetra-, read-out: KD
  Kd: 650 nM
[2]; [5]
  Kd: 660 nM
[2]; 1:1 binding model
  ka: 5690 s⁻¹ and 5260 s⁻¹
  kd: 0.00372 M⁻¹ s⁻¹ and 0.00348 M⁻¹ s⁻¹
[2]
  Obs Rmax (observed maximum binding response): 28 and 29

## CO[C@@H]1[C@H](O)[C@@H](O[C@H]2[C@H](OC)[C@H](O)[C@@H](O[C@H]3[C@H](OC)[C@H](O)[C@@H](O)O[C@@H]3C)O[C@@H]2C)O[C@H](C)[C@H]1O [trisaccharide, 3-O-methyl-α-D-rhamnopyranoside-(1→4)-3-O-methyl-α-D-rhamnopyranoside-(1→4)-3-O-methyl-α-D-rhamnopyranose]
[1]
  inhibition of binding of mAb 1B1 to its target LPS and killed whole cells: effectively equivalent in inhibiting
[1]; listed as 3-O-methyl rhamnan trisaccharide
  inhibition of binding of mAb 1B1 to its target LPS and killed whole cells: effectively inhibited
[2]; 1:1 binding model, table: two runs, text: one value per oligosaccharide, listed as Tri-, read-out: KD
  Kd: 1370 nM and 1460 nM
[2]; [5]
  Kd: 1420 nM
[2]; [6]
  ka: 12800 s⁻¹ and 12300 s⁻¹
  kd: 0.0176 M⁻¹ s⁻¹ and 0.0179 M⁻¹ s⁻¹
[2]
  Obs Rmax (observed maximum binding response): 21

B1: 3B8: mouse IgM monoclonal antibody to the A-PS terminus; VH SEQ ID NO: 13, VL SEQ ID NO: 17 (antibody, V domains shown)
VH: EIQLQQSGPELVKPGASVKVSCKASGYSFTDYNMYWVKQSHGKSLEWVGYIDPYNGGTTYNQKFKGKATLTVDKSSSTAFMHLNSLTSEDSAVYYCAKGGYRYDAWFAYWGQGTLVTVSA
VL: DAVMTQTPLSLPVSLGDHASISCRSSQSLENNNGNTYLNWYLQKPGQSPQLLIYRVSNRFSGVLDRFSGSGSGTDFTLKISRVEAEDLGVYFCLQVTHVPWTFGGGTKLEIK
[3]
  epitope relation in competition ELISA with mAb 3C4: recognised similar overlapping epitopes
[4]
  range of P. aeruginosa strains recognised: recognition restricted to the wt serotype 5 strains PAO1 BAA-47 and 5937
